Legend:
[1] = system: terminal pathway (TP) of complement; assay: serum-based terminal pathway (TP) hemolytic assay (2% NHS, C5b,6, chicken erythrocytes); assay type: cell-based, human
Description: Erythrocyte lysis assays were used to measure complement-mediated hemolytic activity. Erythrocyte (RBC) lysis assays as previously described^18,37 were used to measure complement activity. For alternative pathway assays and for total hemolytic activity assays, unsensitized rabbit erythrocytes were used. Chicken erythrocytes were used for the terminal pathway assays.
Erythrocytes were washed three times in GVB with the reaction buffers as indicated, and counted using the Advia 120 Hematology System from Siemens (Siemens, Erlangen, Germany). Reactions in 300 μL were allowed to proceed for 30 min at 37° C., after which unlysed cells were pelleted by centrifugation at 600×g. Erythrocyte lysis, reflected by the released hemoglobin in the supernatant, was quantified by measuring the absorbance at 405 nm using the Mithras LB 940 microplate reader from Berthold Technologies (Bad Wildbad, Germany). Percent lysis was determined relative to the control of 100% lysis with H2O. For total hemolytic and terminal pathway (TP) assays, the concentrations of NHS and C5b,6 to initiate complement activation were established from pilot studies to obtain ˜70-80% erythrocyte lysis at 30 min.
For serum-based terminal pathway (TP) hemolytic assays, components were diluted in GVB containing 10 mM EDTA (GVB-E), the latter added to prevent upstream complement activation and generation of endogenous C5b,6. 2% NHS was used as the source of C7, C8, and C9, and hemolysis of chicken erythrocytes (cRBC) (3.3×10^8 cells/mL) was initiated by addition of exogenous purified C5b,6, the concentration of which was determined from pilot studies to yield ˜70-80% lysis at 30 min. No C5b,6 activity was detected in the NHS prior to initiating the reaction. For some experiments, instead of NHS, purified terminal pathway complement components were used in the TP assays. In these assays, in a final volume of 300 uL GVB, lysis was achieved by the sequential addition of the following components: cRBC (3.3×10^8 cells/mL), C5b,6 (20 μM), C7 (15 nM), C8 (10 nM), and C9 (25 nM). The unlysed cell pellet was removed by centrifugation and lysis was measured immediately after the 30-minute reaction. A standard curve for the terminal pathway assay using serum as the source of complement (FIG. 2) was generated using a fixed serum concentration at 2%, and increasing concentrations of purified C5b,6 dose-dependently lysed chicken erythrocytes after 30 min at 37° C. […] of purified C5b,6 was therefore used to fix baseline lysis at ˜80% to allow assessment of the inhibitory effects of polyphosphate in serum.
TP activity in NHS(2%), measured by lysis of cRBC, was initiated by adding a limiting amount of exogenous purified C5b,6 (250 pM) to achieve 70-80% lysis after 30 min. A molar excess of EDTA was used to prevent upstream activation of complement and generation of endogenous C5b,6. In the absence of C5b,6, there was no detectable complement-mediated cRBC lysis. P1 at concentrations ranging from 0.1 to 1000 μM, had no effect on complement-mediated hemolysis in NHS via the TP (FIG. 5A). By contrast, polyphosphate>1000 inhibited the TP in serum in a concentration-dependent manner, with an IC50 of ˜10 μM polyphosphate>1000 (dotted lines) (calculated based on monomeric phosphate).

[2] = system: C5b,6, C5, C6, C7, thrombin; assay: differential scanning fluorimetry (DSF), all proteins tested; assay type: binding; settings: 1 mM
Method: For DSF, 25 μL reaction mixes consisting of 0.4 mg/mL protein (0.14 mg/mL for C5b,6), varying concentrations of polyphosphate diluted in HBS (20 mM HEPES, 150 mM NaCl, pH 7.4), and 5× SYPRO Orange were loaded into MicroAmp Fast Optical 96-well Reaction Plates (Applied Biosystems). Samples were heat denatured in an Applied Biosystems StepOnePlus Real-Time PCR System using a ramp configuration starting at 25° C. and increasing at 1 C.° min^−1 to 95° C. Fluorescence (in relative fluorescence units, RFU) was measured every 30 seconds^38. Data for each curve were normalized to the maximum and the minimum of the curve.
In another approach, differential scanning fluorimetry (DSF) was used to determine the thermal stability of the complement proteins in the presence and absence of polyphosphate. This technique involves heat-denaturing proteins and exposing internal hydrophobic regions to the aqueous environment, which are detected by the fluorescent dye SYPRO Orange^38. Interactions between a protein and a binding partner often change the thermal stability of the protein, observed as a shift in the melting (denaturation) curve. C5b,6, C5, C6, and C7 were individually incubated with a range of concentrations of polyphosphate>1000 and relative fluorescence (RFU) was measured as the proteins were thermally denatured. An increase in RFU indicates protein denaturation. […]

[3] = system: choroidal endothelial cells (CEC; RF/6A); assay: protection against H2O2 oxidative stress, microscopy; assay type: cell-based; settings: 100 μM to 1000 μM, H2O2 24 hours
Method: Using cultured cell lines as models of choroidal endothelial cells (CEC; RF/6A)^73 and retinal pigmented epithelial cells (ARPE-19)^74, we tested whether polyphosphate (polyP) could protect against stress-induced alterations in cell survival and deposition of terminal complement activation products (C5b-9).
CEC (FIG. 21) or ARPE-19 (FIG. 22) cells were grown to ˜80% confluence in DMEM+10% serum, and then incubated with varying concentration of hydrogen peroxide (H2O2) for 24 hours in the presence of varying concentrations of polyP1000.

## O=P(O)(O)O [P1, Orthophosphate]
[1]; 100 μM (based on the monomeric form)
  effect on TP hemolytic activity at equivalent concentration: had no effect
[1]; 0.1 to 1000 μM, 2% NHS, 250 pM C5b,6, cRBC
  effect on complement-mediated hemolysis in NHS via the TP: had no effect
[1]; up to 2 mM P1 with 200 μM polyphosphate>1000
  effect of co-incubated P1 on suppressive properties of polyphosphate>1000: had no effect on the suppressive properties
[2]
  effect on thermal stability (DSF): had no effect on the thermal stability
[3]
  protective effect against H2O2 oxidative stress, CEC: No effect was observed

From US9408871B2, “Methods for inhibiting complement activation and uses thereof” (THE UNIVERSITY OF BRITISH COLUMBIA, priority 2013, dated 2016)
